Assays:
[1] = tested on: primary MLL-AF9 AML cells; experiment: MLL-AF9 AML secondary BMT recipient mouse model; assay type: in vivo; conditions: MLL-AF9 AML mice; nanoparticles 0.5 mg/kg i.v., JQ1 50 mg/kg i.p., every other day; PBS control 54 days
Experimental: The same MLL-AF9 AML mouse model was employed. […] All the P values were detected by log-rank test.
After the onset of secondary AML, the recipient mice were treated with PBS control, 0.5 mg/kg G7-NH2-miR-150, or G7-Flt3L-miR-150, i.v., every other day, until the PBS-treated control group all died of leukemia.
For the JQ1 and nanoparticle combination treatment experiment, after the onset of AML, the recipient mice were treated with PBS control, or 50 mg/kg JQ1, i.p., alone, or together with 0.5 mg/kg G7-NH2-miR-150, or G7-Flt3L-miR-150, i.v., every other day, until the PBS-treated control group all died of leukemia.
The in vivo therapeutic effects of the miR-150 nanoparticles were also investigated in a MLL-rearranged leukemic mouse model.

[2] = Blood cell counts of normal mice after nanoparticle/drug administration (effects on normal hematopoiesis)
Experimental: FIG. 12 provides an analysis of the potential influence of the nanoparticles on hematopoietic system in normal mice, C57BL/6 wild type mice were treated with 0.5 mg/kg PBS (Control/Ctrl), G7-NH2, G7-Flt3L, G7-NH2-miR-150 or G7-Flt3L-miR-150, i.v., every other day, for ten times. Mice were sacrificed 12 weeks after the last administration, subsequent Wright-Giemsa stained PB and BM, and H&E stained spleen and liver of the animals are shown.

[3] = normal C57BL/6 mice, 50 mg/kg JQ1 and/or 0.5 mg/kg nanoparticles, i.v., every day for 15 days, 4 weeks after the last administration

Question: Which median survival [1] does the source give for `Cc1sc2c(c1C)C(c1ccc(Cl)cc1)=N[C@@H](CC(=O)OC(C)(C)C)c1nnc(C)n1-2` [JQ1] here?
Answer: Its median survival is 69.5 days.

Question: And the BA [2, 3]?
Answer: Its BA is 0.01 ± 0.0 K/μl.

Question: And the EO [2, 3]?
Answer: The EO was 0.04 ± 0.04 K/μl.

Question: And the LY [2, 3]?
Answer: Its LY is 5.57 ± 0.83 K/μl.

Question: What about the MO [2, 3] of the same compound?
Answer: The MO was 0.36 ± 0.32 K/μl.

Question: And the NE [2, 3]?
Answer: Its NE is 1.2 ± 0.62 K/μl.

Question: What about the PLT [2, 3] of the same compound?
Answer: Its PLT is 688 ± 110.3 K/μl.

Question: And the RBC [2, 3]?
Answer: The RBC was 8.12 ± 1.13 M/μl.

Question: And the WBC [2, 3]?
Answer: The WBC was 7.18 ± 0.76 K/μl.

Question: And the “noticeable (side) effects on normal hematopoiesis” value ([2]; normal mice in vivo)?
Answer: Its value is “did not cause any noticeable side effects”.

Reference: patent publication US11951178B2, “Methods for treating subjects suffering from acute myeloid leukemia with FLT3 ligand-targeted miR-150 nanoparticles” (University of Cincinnati, priority 2016, dated 2024)
